# Source: patent publication US20230146455A1, “TREATMENT OF INFLAMMATORY DISEASES WITH PEPTIDES AND PHARMACEUTICAL COMPOSITIONS” (Yuyu Pharma, Inc., priority 2020, published 2023)
# Values joined by “and” are separate entries in the source; they are usually repeats but may differ in a detail not shown here. Equal entries are not always repeated. Where a SMILES comes first, the peptide text is derived from it. [ ]: non-standard residue; d: D form. Hyp = O=C(O)[C@@H]1C[C@@H](O)CN1
# Tested on: human PBMCs
# Test: PBMC cell counts (total, live, viability; trypan blue, Countess) with and without LPS and test articles (Example 9)
# Assay type: cell-based
# Protocol: Treatment Human PBMCs were pretreated with YY-101, YDE-011 and YDE-043 or reference compound; Xiidra® at various concentration (ranging from 1 nM to 100 uM) for 2 h before stimulation. An equal volume of 0.5% DMSO was used as a vehicle control. Then, the cells were treated with LPS at 5 ug/ml. The supernatants from treated cells were harvested at 24 h and placed in a 96 well for Luminex cytokine & chemokine profiling using a Luminex 200 multiplex assay (Luminex; R&D system, USA).
# The main study arm with triplicate wells per group in a 24-well plate: • 1. Blank • 2. PBMC: 0.5% DMSO • 3. PBMC+LPS (5 ug/ml) • 4. PBMC+YY-101 100 uM • 5. PBMC+YY-101 10 uM • 6. PBMC+YY-101 1 uM • 7. PBMC+YY-101 0.1 uM • 8. PBMC+YY-101 0.01 uM • 9. PBMC+LPS (5 ug/ml)+Xiidra®100 uM • 10. PBMC+LPS (5 ug/ml)+Xiidra® 10 uM • 11. PBMC+LPS (5 ug/ml)+Xiidra® 1 uM • 12. PBMC+LPS (5 ug/ml)+Xiidra®0.1 uM • 13. PBMC+LPS (5 ug/ml)+Xiidra®0.01 uM • 14. PBMC+LPS (5 ug/ml)+Xiidra®0.001 uM • 15. PBMC+LPS (5 ug/ml)+YY-101 100 uM • 16. PBMC+LPS (5 ug/ml)+YY-101 10 uM • 17. PBMC+LPS (5 ug/ml)+YY-101 1 uM • 18. PBMC+LPS (5 ug/ml)+YY-101 0.1 uM • 19. PBMC+LPS (5 ug/ml)+YY-101 0.01 uM • 20. PBMC+LPS (5 ug/ml)+YY-101 0.001 uM • 21. PBMC+LPS (5 ug/ml)+YDE-011 100 uM • 22. PBMC+LPS (5 ug/ml)+YDE-011 10 uM • 23. PBMC+LPS (5 ug/ml)+YDE-011 1 uM • 24. PBMC+LPS (5 ug/ml)+YDE-011 0.1 uM • 25. PBMC+LPS (5 ug/ml)+YDE-011 0.01 uM • 26. PBMC+LPS (5 ug/ml)+YDE-011 0.001 uM • 27. PBMC+LPS (5 ug/ml)+YDE-043 100 uM • 28. PBMC+LPS (5 ug/ml)+YDE-043 10 uM • 29. PBMC+LPS (5 ug/ml)+YDE-043 1 uM • 30. PBMC+LPS (5 ug/ml)+YDE-043 0.1 uM • 31. PBMC+LPS (5 ug/ml)+YDE-043 0.01 uM • 32. PBMC+LPS (5 ug/ml)+YDE-043 0.001 uM
# The number of PBMCs was measured after 24 hr of treatment. The culture both and trypan blue were diluted 1:1 and 10 ul was added to Countess cell counting chamber (Thermo fisher, USA). The number of PBMCs was measured using a Countess automated cell counter (Thermo fisher, USA).
# [1] = PBMC + LPS(5 ug/ml) + test article 100 uM, Mean
# [2] = PBMC + LPS(5 ug/ml) + test article 100 uM, single replicates
# [3] = PBMC + LPS(5 ug/ml), test article 0.001 uM, Mean
# [4] = PBMC + LPS(5 ug/ml), test article 0.001 uM, single replicates
# [5] = PBMC + LPS(5 ug/ml), test article 0.01 uM, Mean
# [6] = PBMC + LPS(5 ug/ml), test article 0.01 uM, single replicates
# [7] = PBMC + LPS(5 ug/ml), test article 0.1 uM, Mean
# [8] = PBMC + LPS(5 ug/ml), test article 0.1 uM, single replicates
# [9] = PBMC + LPS(5 ug/ml), test article 1 uM, Mean
# [10] = PBMC + LPS(5 ug/ml), test article 1 uM, single replicates
# [11] = PBMC + LPS(5 ug/ml), test article 10 uM, Mean
# [12] = PBMC + LPS(5 ug/ml), test article 10 uM, single replicates
# [13] = PBMC + LPS(5 ug/ml), test article 100 uM, Mean
# [14] = PBMC + LPS(5 ug/ml), test article 100 uM, single replicates
smiles,measurement,setting,value
CC(C)C[C@H](NC(=O)CNC(=O)[C@H](CC(C)C)NC(=O)[C@H](CCC(N)=O)NC(=O)CNC(=O)[C@@H]1C[C@@H](O)CN1)C(=O)N[C@@H](C)C(=O)NCC(=O)N1CCC[C@H]1C(=O)N[C@@H](CCCCN)C(=O)O [YDE-011] (H-[Hyp]GQLGLAGPK-OH),Live cell,"PBMC + LPS(5 ug/ml) + test article 10 uM, single replicates (1st, 2nd, 3rd)",5.4 10^5/ml and 5.8 10^5/ml and 4.7 10^5/ml
same,Live cell,[1],6.1 10^5/ml
same,Live cell (10^5/ml),[1],6.1 10^5/ml
same,"Live cell, Mean",[1],6.1 10^5/ml
same,Live cell,"PBMC + LPS(5 ug/ml) + test article 100 uM, individual replicates",6.1 10^5/ml (2×) and 6.0 10^5/ml
same,Live cell,"PBMC + LPS(5 ug/ml) + test article 100 uM, individual replicates (1st, 2nd, 3rd)",6.1 10^5/ml (2×) and 6.0 10^5/ml
same,Live cell,[2],6.1 10^5/ml (2×) and 6.0 10^5/ml
same,Live cell (10^5/ml),[2],6.1 10^5/ml (2×) and 6.0 10^5/ml
same,Live cell,"PBMC + LPS(5 ug/ml) + test article 100 uM, single replicates (1st, 2nd, 3rd)",6.1 10^5/ml (2×) and 6.0 10^5/ml
same,Live cell,"PBMC + LPS(5 ug/ml), 0.001 uM, Mean",5.4 10^5/ml
same,Live cell,"PBMC + LPS(5 ug/ml), 0.001 uM, single replicates",4.5 10^5/ml and 5.8 10^5/ml (2×)
same,Live cell,"PBMC + LPS(5 ug/ml), 0.01 uM, Mean",5.9 10^5/ml
same,Live cell,"PBMC + LPS(5 ug/ml), 0.01 uM, single replicates",6.2 10^5/ml and 5.1 10^5/ml and 6.3 10^5/ml
same,Live cell,"PBMC + LPS(5 ug/ml), 0.1 uM, Mean",5.8 10^5/ml
same,Live cell,"PBMC + LPS(5 ug/ml), 0.1 uM, single replicates",6.6 10^5/ml and 5.0 10^5/ml and 5.7 10^5/ml
same,Live cell,"PBMC + LPS(5 ug/ml), 1 uM, Mean",5.0 10^5/ml
same,Live cell,"PBMC + LPS(5 ug/ml), 1 uM, single replicates",5.5 10^5/ml and 4.8 10^5/ml (2×)
same,Live cell,"PBMC + LPS(5 ug/ml), 10 uM, Mean",5.3 10^5/ml
same,Live cell,"PBMC + LPS(5 ug/ml), 10 uM, single replicates",5.4 10^5/ml and 5.8 10^5/ml and 4.7 10^5/ml
same,Live cell,"PBMC + LPS(5 ug/ml), 100 uM, Mean",6.1 10^5/ml
same,Live cell,"PBMC + LPS(5 ug/ml), 100 uM, single replicates",6.1 10^5/ml (2×) and 6.0 10^5/ml
same,Live cell,[3],5.4 10^5/ml
same,Total cell count,[3],6.3 10^5/ml
same,Live cell,[4],4.5 10^5/ml and 5.8 10^5/ml (2×)
same,Total cell count,[4],5.9 10^5/ml and 6.3 10^5/ml and 6.6 10^5/ml
same,Viability,[4],75.0% and 92.0% and 88.0%
same,Live cell,[5],5.9 10^5/ml
same,Total cell count,[5],7.3 10^5/ml
same,Live cell,[6],6.3 10^5/ml and 6.2 10^5/ml and 5.1 10^5/ml
same,Total cell count,[6],7.6 10^5/ml and 7.8 10^5/ml and 6.4 10^5/ml
same,Viability,[6],79.0%
same,Live cell,[7],5.8 10^5/ml
same,Total cell count,[7],7.1 10^5/ml
same,Live cell,[8],6.6 10^5/ml and 5.0 10^5/ml and 5.7 10^5/ml
same,Total cell count,[8],7.8 10^5/ml and 5.7 10^5/ml and 7.7 10^5/ml
same,Viability,[8],85.0% and 87.0% and 74.0%
same,Live cell,[9],5.0 10^5/ml
same,Total cell count,[9],6.4 10^5/ml
same,Live cell,[10],5.5 10^5/ml and 4.8 10^5/ml
same,Total cell count,[10],6.2 10^5/ml and 7.0 10^5/ml and 5.9 10^5/ml
same,Viability,[10],89.0% and 69.0% and 81.0%
same,Live cell,[11],5.3 10^5/ml
same,Total cell count,[11],6.0 10^5/ml
same,Live cell,[12],5.4 10^5/ml and 5.8 10^5/ml and 4.7 10^5/ml
same,Total cell count,[12],5.9 10^5/ml and 6.7 10^5/ml and 5.4 10^5/ml
same,Viability,[12],91.0% and 86.0% and 88.0%
same,Live cell,[13],6.1 10^5/ml
same,Total cell count,[13],8.2 10^5/ml
same,Live cell,[14],6.1 10^5/ml (2×) and 6.0 10^5/ml
same,Total cell count,[14],7.6 10^5/ml and 8.1 10^5/ml and 9.0 10^5/ml
same,Viability,[14],81.0% and 75.0% and 67.0%
same,which treatments consistently affected the total and live number of PBMCs or the percent viability (in words),"up to 100 μM, 24-hour treatment",none of
